Results on six compounds are retold here after PubChem BioAssay AID1963867 (Molecular Pharmacology Branch, DTP, NCI, 2024).

“And” between values parts separate entries of the source, which are not always exact repeats. Equal values may be shown once.

This test has as its system KRAS-mutant PDC tumor spheroid with HUVEC/MSC, viability. Kind of test: Anticancer human tumor 327498-153-R-J2-PDC patient-derived uterine carcinosarcoma cell line growth inhibition [KRAS2]. As to conditions: for viability, T/C: stronger effect = lower value. An outline of the steps:
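KRAS-mutant tumor cells were grown as spheroids with HUVEC endothelial cells and human MSCs as stroma. Targeted agents were tested alone and with KRAS pathway inhibitors. Doses started at or near clinical Cmax, or 10 microM, descending half-log.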

Setting [1] is: curve of first compound, second compound 0.1 µM.
Where [2] appears, read: curve of first compound, second compound 0.316 µM.
Setting [3] is: curve of first compound, second compound 1 µM.
[4] abbreviates: curve of first compound, second compound 3.16 µM.
Setting [5] is: curve of first compound, second compound 10 µM.
The mark [6] stands for this setting: second compound 0.1 µM, first compound 0.0316 µM.
Setting [7] is: second compound 0.1 µM, first compound 0.1 µM.
The mark [8] stands for this setting: second compound 0.1 µM, first compound 0.316 µM.
Setting [9] is: second compound 0.1 µM, first compound 1 µM.
[10] abbreviates: second compound 0.1 µM, first compound 3.16 µM.
Where [11] appears, read: second compound 0.1 µM, first compound 10 µM.
Setting [12] is: second compound 0.316 µM, first compound 0.0316 µM.
Where [13] appears, read: second compound 0.316 µM, first compound 0.1 µM.
Setting [14] is: second compound 0.316 µM, first compound 0.316 µM.
Where [15] appears, read: second compound 0.316 µM, first compound 1 µM.
The mark [16] stands for this setting: second compound 0.316 µM, first compound 3.16 µM.
Setting [17] is: second compound 1 µM, first compound 0.0316 µM.
[18] abbreviates: second compound 1 µM, first compound 0.1 µM.
Where [19] appears, read: second compound 1 µM, first compound 0.316 µM.
The mark [20] stands for this setting: second compound 1 µM, first compound 1 µM.
Where [21] appears, read: second compound 1 µM, first compound 3.16 µM.
[22] abbreviates: second compound 1 µM, first compound 10 µM.
Setting [23] is: second compound 3.16 µM, first compound 0.0316 µM.
Setting [24] is: second compound 3.16 µM, first compound 0.1 µM.
Setting [25] is: second compound 3.16 µM, first compound 0.316 µM.
Where [26] appears, read: second compound 3.16 µM, first compound 1 µM.
Setting [27] is: second compound 3.16 µM, first compound 3.16 µM.
Setting [28] is: second compound 3.16 µM, first compound 10 µM.
Where [29] appears, read: second compound 10 µM, first compound 0.0316 µM.
The mark [30] stands for this setting: second compound 10 µM, first compound 0.1 µM.
[31] abbreviates: second compound 10 µM, first compound 0.316 µM.
Where [32] appears, read: second compound 10 µM, first compound 1 µM.
[33] abbreviates: second compound 10 µM, first compound 3.16 µM.
Where [34] appears, read: second compound 0.1 µM, first compound 0.01 µM.
[35] abbreviates: second compound 0.316 µM, first compound 0.01 µM.
The mark [36] stands for this setting: second compound 1 µM, first compound 0.01 µM.
[37] abbreviates: second compound 3.16 µM, first compound 0.01 µM.
The mark [38] stands for this setting: second compound 10 µM, first compound 0.01 µM.
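Also: spheroids exposed to agents for seven days before reading.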
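For viability, T/C in this document: 100% = DMSO vehicle wells so lower means fewer viable cells.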

Regarding `CC1OCC2(CCN(c3cnc(Sc4ccnc(N)c4Cl)c(N)n3)CC2)C1N` (centres undefined) + COc1cc2nc(C)nc(NC(C)c3cc(N)cc(C(F)(F)F)c3)c2cc1OC1CCOC1, the IC50 under setting [1] turned out to be 0.129 µM; the IC50 under setting [2] was determined as 0.0855 µM; the IC50 under setting [3] was 0.0993 µM; the IC50 under setting [4] is 0.0648 µM; the IC50 under setting [5] was less than 0.0316 µM. Further, the viability, T/C under setting [6] was 72.8%; the viability, T/C under setting [7] is 46.9%; the viability, T/C under setting [8] is 44.7%; the viability, T/C under setting [9] was 34.4%; the viability, T/C under setting [10] was 29.3%; the viability, T/C under setting [11] is 23.6%. Moreover, the viability, T/C is, setting by setting: under setting [12], 61.6%; under setting [13], 47.5%; under setting [14], 39.8%; under setting [15], 32.3%; under setting [16], 29.6%; (second compound 0.316 µM, first compound 10 µM) 27.8%. In addition, the viability, T/C under setting [17] is 61.6%; the viability, T/C under setting [18] is 50.2%; the viability, T/C under setting [19] is 39.6%; the viability, T/C under setting [20] was 32.8%; the viability, T/C under setting [21] is 27.8%; the viability, T/C under setting [22] was 22.7%. Further, the viability, T/C under setting [23] is 58%; the viability, T/C under setting [24] is 43.3%; the viability, T/C under setting [25] was 39.6%; the viability, T/C under setting [26] was 28.7%; the viability, T/C under setting [27] was 23.5%; the viability, T/C under setting [28] was 23.7%. For the same compound, the viability, T/C reads like this: under setting [29], 49.5%; under setting [30], 37.5%; under setting [31], 31.2%; under setting [32], 25.2%; under setting [33], 25.3%; (second compound 10 µM, first compound 10 µM) 16.2%.

`CCN1CCN(Cc2ccc(Nc3ncc(F)c(-c4cc(F)c5nc(C)n(C(C)C)c5c4)n3)nc2)CC1` + CNCc1ccccc1-c1csc(C(C)Nc2nc(C)nc3cc(OC)c(OC)cc23)c1: the IC50 was 0.0429 µM under setting [1]; 0.0131 µM under setting [2]; 0.00926 µM under setting [3]; less than 0.00316 µM under setting [4]; less than 0.00316 µM under setting [5]. In addition, the viability, T/C reads like this: (second compound 0.1 µM, first compound 0.00316 µM) 65.2%; under setting [34], 58.8%; under setting [6], 52.9%; under setting [7], 37.5%; under setting [8], 41.7%; under setting [9], 47%. The viability, T/C reads like this: (second compound 0.316 µM, first compound 0.00316 µM) 69.4%; under setting [35], 52.8%; under setting [12], 41.3%; under setting [13], 35.5%; under setting [14], 39.6%; under setting [15], 43.9%. The viability, T/C is, setting by setting: (second compound 1 µM, first compound 0.00316 µM) 72.7%; under setting [36], 46.9%; under setting [17], 36.4%; under setting [18], 34.5%; under setting [19], 36.2%; under setting [20], 21.8%. Besides, the viability, T/C by setting is: (second compound 3.16 µM, first compound 0.00316 µM) 0.58%; under setting [37], 0.79%; under setting [23], 0.11%; under setting [24], 0.06%; under setting [25], 0.24%; under setting [26], 0.25%. For the same compound, the viability, T/C runs as follows: (second compound 10 µM, first compound 0.00316 µM) 0.56%; under setting [38], 0.69%; under setting [29], 0.91%; under setting [30], 0.68%; under setting [31], 0.69%; under setting [32], 0.69%.

For `CC(=O)OC12COC1CC(O)C1(C)C(=O)C(O)C3=C(C)C(OC(=O)C(O)C(NC(=O)OC(C)(C)C)c4ccccc4)CC(O)(C(OC(=O)c4ccccc4)C21)C3(C)C` (centres undefined) + CC1OCC2(CCN(c3cnc(Sc4ccnc(N)c4Cl)c(N)n3)CC2)C1N, the IC50 reads like this: under setting [1], less than 0.01 µM; under setting [2], less than 0.01 µM; under setting [3], less than 0.01 µM; under setting [4], less than 0.01 µM; under setting [5], less than 0.01 µM. For the same compound, the viability, T/C runs as follows: under setting [34], 7.15%; under setting [6], 5.15%; under setting [7], 5.38%; under setting [8], 6.78%; under setting [9], 9.97%; under setting [10], 11.7%. Moreover, the viability, T/C under setting [35] was 7.22%; the viability, T/C under setting [12] is 4.87%; the viability, T/C under setting [13] was 5.16%; the viability, T/C under setting [14] is 6.51%; the viability, T/C under setting [15] is 8.59%; the viability, T/C under setting [16] was 12.2%. The viability, T/C reads like this: under setting [36], 8.68%; under setting [17], 6.9%; under setting [18], 11%; under setting [19], 6.11%; under setting [20], 8.45%; under setting [21], 11.8%. The viability, T/C is 6.83% under setting [37]; 6.18% under setting [23]; 5.94% under setting [24]; 6.88% under setting [25]; 9.05% under setting [26]; 10.5% under setting [27]. Further, the viability, T/C is 12.6% under setting [38]; 6.42% under setting [29]; 9.06% under setting [30]; 5.82% under setting [31]; 10.8% under setting [32]; 10.4% under setting [33].

For `CCNC(=O)CC1N=C(c2ccc(Cl)cc2)c2cc(OC)ccc2-n2c(C)nnc21` (centres undefined), the viability, T/C is, setting by setting: (compound 0.0316 µM) 102% [middle of 5 runs]; (compound 0.1 µM) 95.9% [middle of 5 runs]; (compound 0.316 µM) 77.6% [middle of 5 runs]; (compound 1 µM) 64.8% [middle of 5 runs].

For `CCNC(=O)CC1N=C(c2ccc(Cl)cc2)c2cc(OC)ccc2-n2c(C)nnc21` (centres undefined) + C=CC(=O)N1CCN(c2nc(OCC3CCCN3C)nc3c2CCN(c2cccc4cccc(C)c24)C3)CC1CC#N, the IC50 (curve of first compound, second compound 0.0316 µM) stood at 0.657 µM; the IC50 under setting [1] was 0.218 µM; the IC50 under setting [3] was less than 0.0316 µM; the IC50 under setting [4] is less than 0.0316 µM. Moreover, the viability, T/C by setting is: (second compound 0.0316 µM, first compound 0.0316 µM) 72.8%; (second compound 0.0316 µM, first compound 0.1 µM) 75.9%; (second compound 0.0316 µM, first compound 0.316 µM) 51.8%; (second compound 0.0316 µM, first compound 1 µM) 47.1%; (second compound 0.0316 µM, first compound 3.16 µM) 36.5%; (second compound 0.0316 µM, first compound 10 µM) 27%. Further, the viability, T/C under setting [6] was 55.9%; the viability, T/C under setting [7] was 58.4%; the viability, T/C under setting [8] was 46.2%; the viability, T/C under setting [9] was 36.9%; the viability, T/C under setting [10] was 31.9%; the viability, T/C under setting [11] is 22.4%. In addition, the viability, T/C is, setting by setting: under setting [17], 48.8%; under setting [18], 41.7%; under setting [19], 36.4%; under setting [20], 27.9%; under setting [21], 25.1%; under setting [22], 18.9%. Also, the viability, T/C under setting [23] is 1.66%; the viability, T/C under setting [24] is 2.31%; the viability, T/C under setting [25] was 1.02%; the viability, T/C under setting [26] was 0.22%; the viability, T/C under setting [27] was 2.19%; the viability, T/C under setting [28] is 0.39%.

Regarding `CC1OCC2(CCN(c3cnc(Sc4ccnc(N)c4Cl)c(N)n3)CC2)C1N` (centres undefined), the viability, T/C runs as follows: (compound 0.0316 µM) 87.3% and 88.9% and 86.3%; (compound 0.1 µM) 75.4% [middle of 19 runs]; (compound 0.316 µM) 59.2% [middle of 19 runs]; (compound 10 µM) 31.2% [middle of 19 runs]. Further, the IC50 was 544 nM [middle of 5 runs] (compound alone, run of 07/19/2021); 499 nM [middle of 6 runs] (compound alone, run of 07/26/2021); 1.05 µM [middle of 5 runs] (curve of compound).

The term IC50 denotes the concentration needed to halve the response being measured. Broadly, the viability, T/C is the result in the treated group divided by that in the control group, in per cent.
